# Where “and” joins values, the source holds several entries; their conditions need not be identical. Identical values can stand only once. Entries after “also recorded” stand apart in the source; their conditions may differ.
# How the values were obtained:
# [1] = Multiple dose PK, 0.3 micron capsules 600, 800, 1000 mg BID escalating, healthy volunteers; format: in vivo, human; settings: for Cmax: steady state
# Protocol: Multiple-dose studies of oral ganaxolone formulations were conducted in healthy volunteers. The 0.3 micron ganaxolone capsules were administered BID with a standard meal or snack for 7 days and at increasing doses.
# Steady-state was reached within 3 days of administration of 600, 800 and 1000 mg BID ganaxolone to healthy subjects. The medium and high dose regimens were started after 3 days on the low dose and medium dose regimens, respectively. In general, ganaxolone was rapidly absorbed following PO administration and the mean Cmax was attained within 2 hours after multiple dosing; median Tmax was independent of dose level. […] Proportionality was conserved from 600 mg to 800 mg.
# Values at Day 6.5, 9.5 and 12.5 are from evening samples collected 12 hrs after the last dose on PK sampling days. Subjects received 600 mg ganaxolone BID on Days 4-6; 800 mg ganaxolone BID on Days 7-9; and 1000 mg ganaxolone BID on Days 10-12.
# [2] = system: children with CDKL5 Deficiency Disorder; assay: Phase 2 open-label trial, CDKL5 (CDD) cohort, seizure efficacy; format: in vivo, human
# From the text: Example 3 concerns a Phase 2 Multicenter, Open-Label Proof-of-Concept Trial of ganaxolone (GNX) in cohorts of children having genetic epilepsies (PCDH19, CDKL5 LGS, and CSWS) (ClinicalTrials.gov Identifier: NCT02358538). There were 11 female children with PCDH19 epilepsy between 5-16 years old with a confirmed genetic mutation. There were 6 female and 1 male children with confirmed genetic mutations in the CDKL5 cohort. There were 10 children in the Lennox Gastaut Syndrome cohort. Two children with CSWS were enrolled into the study. The study was conducted with 12 weeks baseline, and up to 26 weeks of treatment followed by a 52 week open label treatment. The primary efficacy was the percentage change in seizure frequency per 28 days relative to baseline calculated using daily seizure diary. [Time Frame: 26 weeks]. Secondary Outcome Measures were: Clinician Global Impression of Change score as assessed by questionnaire. [Time Frame: 26 Weeks]; Patient Global Impression of Change score as assessed by questionnaire. [Time Frame: 26 Weeks]; Evaluation of safety and tolerability of open-label ganaxolone as adjunctive therapy for uncontrolled seizures in children with rare genetic epilepsies, based on adverse event log and other clinical safety assessments. [Time Frame: 26 weeks]; Responder rates [Time Frame: 26 weeks]; and Seizure free days [Time Frame: 26 weeks].
# Following screening and baseline evaluations, consenting patients enrolled into a 26-week study during which investigators were allowed to flexibly dose ganaxolone up to a dose of 1,800 mg/day for patients whose body weight was >30 kg, or up to 63 mg/kg/day for patients whose body-weight was <30 kg. The primary efficacy measure is % change from baseline in the 28-day seizure frequency count. Safety and tolerability were within the secondary objectives of the study.
# In this study, oral ganaxolone suspension or capsules were administered up to a total of 63 mg/kg/day (maximum 1800 mg/day) over 2-4 weeks. About six-eight titration steps are used, depending on the size of the patient. Children larger than 30 kg may take the ganaxolone capsules. The ganaxolone oral suspension was administered through an oral dosing syringe three times daily. The ganaxolone capsules were administered twice daily. The patients experience better absorption of the ganaxolone with meals (milk).
# After establishing baseline seizure frequency, qualifying subjects entered the study and were treated with open-label ganaxolone oral suspension or ganaxolone capsules at doses up to a maximum of 1800 mg/day for up to 6 months. Maximum study participation was 94 weeks: a screening period up to 12 weeks to establish baseline seizure frequency, up to 26 weeks of treatment, a 52 week extension for subjects who benefited from ganaxolone treatment, and up to 4 weeks of down titration period. […] Refractive cases of LGS or CSWS that had prior response to steroid or ACTH could also have been enrolled.
# Ganaxolone oral suspension was administered through an oral dosing syringe by parent or legal guardian 3 times daily (TID), following the morning, noon, and evening meal or snack. Each dose was separated by a minimum of 4 hours and a maximum of 8 hours. A missed dose of ganaxolone could have been taken up to 4 hours before the next scheduled dose; otherwise, the missed dose was not to be given.
# Ganaxolone capsules were administered with a glass of water or other liquid 2 times daily (BID), following the morning and evening meal or snack. Ganaxolone was provided as either an oral suspension or capsules based on the subject's weight at study entry. Ganaxolone oral suspension was administered through an oral dosing syringe TID by a parent or guardian, following the morning, midday, and evening meal or snack. Each dose was separated by a minimum of 4 hours and a maximum of 8 hours. Ganaxolone capsules were administered BID, following the morning and evening meal or snack. […]
smiles,measurement,setting,value
"CC(=O)[C@H]1CC[C@H]2[C@@H]3CC[C@H]4C[C@](C)(O)CC[C@]4(C)[C@H]3CC[C@]12C [Ganaxolone, 3α-hydroxy-3β-methyl-5α-pregnan-20-one]",Time to steady-state,"[1]; 600, 800 and 1000 mg BID, 0.3 micron capsules",≤ 3 days
same,Mean fluctuation at steady-state,[1]; 600 to 1000 mg BID,172% to 191%
same,Cmax,"[1]; human, plasma, oral, 600 mg BID, 0.3 micron capsules",224 ng/mL
same,Cmax,"[1]; human, plasma, oral, 800 mg BID, 0.3 micron capsules",263 ng/mL
same,Cmax,"[1]; human, plasma, oral, 1000 mg BID, 0.3 micron capsules",262 ng/mL
same,clearance,"[1]; human, plasma, oral, 600 to 1000 mg BID, read-out: Mean apparent total body CL at steady-state",10200 to 12800 mL/min
same,Dose through which pharmacokinetics are linear,"[1]; immediate release 0.3-micron particles, given BID",approximately 1200 mg/day
same,"Improvement in seizure free days, individual patients",[2]; 2 out of 4 completed CDKL5 patients,78% and 368%
same,Patients with >50% reduction in seizure counts,[2]; 4 completed CDKL5 patients,3 out of 4
same,Patients with increase/improvement in seizure-free days,[2]; 7 CDKL5 patients,Four of the 7; also recorded: Five of the 7
same,Mean percent change in 28-day total seizure frequency from baseline to Week 26,"[2]; CDD cohort, PP Population",20.55%
same,Median percent change in 28-day total seizure frequency from baseline to Week 26,"[2]; CDD cohort, PP Population",37.70%
same,Clinical global impression of improvement: much improved,"[2]; CDD cohort, end of Week 26",3 subjects
same,Clinical global impression of improvement: very much improved,"[2]; CDD cohort, end of Week 26",0 subjects
same,Overall responder rate,"[2]; CDKL5, 3 months (3/7 subjects)",43%
same,Overall responder rate,"[2]; CDKL5, 6 months (2/6 subjects)",33%
same,"28-day seizure frequency, sum of individual seizures and clusters, post-baseline 26-week open-label period, Mean (SD)","[2]; CDKL5 N=7, MITT",137.70
same,"28-day seizure frequency, sum of individual seizures and clusters, post-baseline 26-week open-label period, Median","[2]; CDKL5 N=7, MITT",67.29
same,"28-day seizure frequency, sum of individual seizures and clusters, post-baseline through Month 3 (Day 91), Mean (SD)","[2]; CDKL5 N=7, MITT",129.78
same,"28-day seizure frequency, sum of individual seizures and clusters, post-baseline through Month 3 (Day 91), Median","[2]; CDKL5 N=7, MITT",55.69
same,"Percent change from baseline (at Day 91), 28-day seizure frequency, sum of individual seizures and clusters, Mean (SD)","[2]; CDKL5 N=7, MITT",31.23% and −31.23%
same,"Percent change from baseline (at Day 91), 28-day seizure frequency, sum of individual seizures and clusters, Median","[2]; CDKL5 N=7, MITT",47.34% and −47.34%
same,"Percent change from baseline (at Week 26), 28-day seizure frequency, sum of individual seizures and clusters, Mean (SD)","[2]; CDKL5 N=7, MITT",20.55% and −20.55%
same,"Percent change from baseline (at Week 26), 28-day seizure frequency, sum of individual seizures and clusters, Median","[2]; CDKL5 N=7, MITT",37.70% and −37.70%
same,"% change seizure rate-12 month, Mean","[2]; CDKL5 cohort, N=3",−56.12%
same,"% change seizure rate-12 month, Median","[2]; CDKL5 cohort, N=3",−47.79%
same,"Post-baseline 28-day seizure rate-12 month, Mean","[2]; CDKL5 cohort, N=3",114.39
same,"Post-baseline 28-day seizure rate-12 month, Median","[2]; CDKL5 cohort, N=3",76.54
same,"% change seizure rate-3 month, Mean","[2]; CDKL5 cohort, N=7",−32.67%
same,"% change seizure rate-3 month, Median","[2]; CDKL5 cohort, N=7",−49.99%
same,"% change seizure rate-6 month, Mean","[2]; CDKL5 cohort, N=7",−16.81%
same,"% change seizure rate-6 month, Median","[2]; CDKL5 cohort, N=7",−47.80%
same,"Post-baseline 28-day seizure rate-3-month, Mean","[2]; CDKL5 cohort, N=7",821.16
same,"Post-baseline 28-day seizure rate-3-month, Median","[2]; CDKL5 cohort, N=7",57.87
same,"Post-baseline 28-day seizure rate-6 month, Mean","[2]; CDKL5 cohort, N=7",1373.85
same,"Post-baseline 28-day seizure rate-6 month, Median","[2]; CDKL5 cohort, N=7",67.29
same,"28-day individual seizure frequency, post-baseline 26-Week open-label period, Mean (SD)","[2]; CDKL5 n=7, MITT",103.70
same,"28-day individual seizure frequency, post-baseline 26-Week open-label period, Median","[2]; CDKL5 n=7, MITT",67.29
same,"28-day individual seizure frequency, post-baseline through Month 3 (Day 91), Mean (SD)","[2]; CDKL5 n=7, MITT",103.69
same,"28-day individual seizure frequency, post-baseline through Month 3 (Day 91), Median","[2]; CDKL5 n=7, MITT",53.82
same,"Percent change from baseline (at Day 91), 28-day individual seizure frequency, Mean (SD)","[2]; CDKL5 n=7, MITT",−30.33%
same,"Percent change from baseline (at Day 91), 28-day individual seizure frequency, Median","[2]; CDKL5 n=7, MITT",−46.64%
same,"Percent change from baseline (at Week 26), 28-day individual seizure frequency, Mean (SD)","[2]; CDKL5 n=7, MITT",−21.06%
same,"Percent change from baseline (at Week 26), 28-day individual seizure frequency, Median","[2]; CDKL5 n=7, MITT",−38.10%
same,Median percent reduction in seizures,[2]; children with CDKL5 disorder,43%
same,"Reduction in seizure counts, individual patients",[2]; completed CDKL5 patients with >50% reduction,52% and 59% and 88%
same,Patients with improvement in seizure control that persists for up to 6 months,"[2]; first 6 CDKL5 patients, preliminary",3 of 6

# From patent US20250082651A1, “GANAXOLONE FOR USE IN TREATING GENETIC EPILEPTIC DISORDERS” (Marinus Pharmaceuticals, Inc., priority 2017, published 2025)
